Laboratory results reported in patent US10829519B2, “Angiotensin (1-7) analogs and methods relating thereto” (WAKE FOREST UNIVERSITY HEALTH SCIENCES, priority 2015, dated 2020).
Like-named read-outs stand apart in the source and are kept apart here. Where a SMILES comes first, the peptide text is derived from it. Bridges are numbered along the chain shown (N, C = ends). [ ]: non-standard residue; d: D form. Nle = CCCC[C@H](N)C(=O)O

Tests used:
4T1 breast cancer cells [1] = assay: In vivo inhibition of tumor growth by subcutaneous administration, orthotopic 4T1 model in BALB/C mice; set-up: species or system mouse
Description: The ability of TCAng05 to inhibit tumor growth in vivo was measured in an orthotopic model of human breast cancer, using 4T1 breast cancer cells. 4T1 cells (2.5×10^5 in saline) were injected into the 4th mammary fat pad of BALB/C mice. Tumor size was measured every 3 days using a caliper and tumor volume was calculated using the formula for a semi-ellipsoid. The tumors were allowed to grow until they reached a size of 100 mm^3, at which point subcutaneous treatment was started (Day 0). Primed osmotic mini-pumps were implanted into the subcutaneous space on the back of each mouse to deliver either saline, 24 μg/kg/h Ang-(1-7), 6 μg/kg/h TCAng05 (low), 12 μg/kg/h TCAng05 (medium), or 24 μg/kg/h TCAng05 (high). Mice were sacrificed on Day 21 of treatment. Five animals were used per treatment group. […] Treatment with Ang-(1-7) reduced tumor size 50%, to a final size of 495.5±110.8 mm^3. […] At the time of sacrifice, the mice were weighed and the tumors, heart and kidneys were weighed.

[2] = Stability of peptides incubated in rat plasma at 37° C., HPLC; assay type: in vitro ADME
Description: The stability of the Ang(1-7) peptide analog TCAng04 (SEQ ID NO:5) was assessed in rat plasma. The peptide was incubated with rat plasma at 37° C. for 60 min (left) or 125 hours (right). The concentration of TCAng04 and Ang-(1-7) was determined by HPLC using verified standards. Ang-(1-7) was rapidly degraded following incubation in rat plasma with a half-life of about 30 min, similar to the pharmacokinetics observed in two clinical trials (FIG. 1B) (see Rodgers et al. Cancer Chemother Pharmacol 2006; 57:559-68; and Petty et al. Clinical Cancer Research 2009; 15:7398-404). Conversely, TCAng04 was stable under the same conditions, with a half-life in rat plasma of approximately 50 hours.

[3] = test system: MDA-MB-231 human breast cancer cells; assay type: cell-based; conditions: 7 to 10 days; for reduction of cell growth / effect on MDA-MB-231 cell growth: 100 nM; for reduction of cell growth: analogs added on Day 0 (single dose), cell number; for effect on MDA-MB-231 cell growth: added once (Day 0/Day 1)
Description: (§1) To determine the effect of the peptide analogs on tumor cell growth, 100 nM Ang-(1-7) or analogs TCAng01-TCAng05 (SEQ ID NOs:2-6) were incubated with subconfluent monolayers of actively growing A549 human lung cancer cells or MDA-MB-231 human breast cancer cells in 24-well cluster plates for 6 to 10 days or 7 to 10 days. Assays were performed in duplicate for 4-14 replicates or 3-14 replicates, respectively. Cell number was counted using a Nexelcom Cellometer. […] Ang-(1-7) does inhibit the growth of human breast cancer cells (by 42.9±5.2%, n=6, over 6-10 days) and human lung cancer cells (by 53.1±7.1%, n=12, over 7-10 days) if it is added daily, as shown in FIG. 2 and FIG. 3.
A linear form of TCAng05 (L-TCAng05; SEQ ID NO:7) was tested to determine the influence of cyclization on the stability of the peptide. Subconfluent monolayers of MDA-MB-231 human breast cancer cells were incubated with 100 nM of Ang-(1-7), L-TCAng05, or TCAng05 for 7 to 10 days and cell number was counted using a Nexelcom Cellometer. Assays were performed in duplicate for 3-14 replicates. Ang-(1-7) was added daily, due to its rapid degradation.
Similar assays were performed to assess whether inhibition of cell growth by TCAng05 was mediated by the Ang-(1-7) receptor mas. Subconfluent monolayers of MDA-MB-231 human breast cancer cells were incubated with 100 nM of Ang-(1-7), added daily, or TCAng05, in the presence or absence of 1 μM Ang-(1-7) receptor antagonist D-Alanine^7-Ang-(1-7) [Dala] for 7 to 10 days and cell number was counted using a Nexelcom Cellometer. Assays were performed in duplicate for 4-14 replicates.

[4] = test system: A549 human lung cancer cells; assay type: cell-based; conditions: 100 nM, analogs added on Day 0 (single dose), cell number
Description: as §1

collagen = assay: Picrosirius red collagen staining of tumors from orally treated mice (fibrosis); assay type: in vivo, mouse; conditions: oral TCAng05
Description: (§2) To identify the molecular mechanisms for the reduction in tumor weight, tumors from mice that received oral TCAng05 (described in Example 5) were assessed for cell markers associated with cell proliferation, angiogenesis, and fibrosis. Tumors were fixed in 4% formalin, embedded in paraffin, sectioned at 5 microns, and analyzed by immunohistochemistry. Tumor tissue sections were visualized using a Leica DM microscope (Leica Microsystems, Bannockburn, Ill.) with the Simple PCI Version 6.0 computer-assisted imaging software (Hamamatsu Corporation, Sewickley, Pa.) and photographed with the Qlmaging Retiga 1300R Camera (Qlmaging Co. Surey, BC, Canada). The number of immunopositive cells is expressed as a percentage of the total cell number examined (100 cells counted from each tissue site within a tumor section).
Tumor sections were stained with Picrosirius red to stain for collagen.

[5] = test system: MDA-MB-231 human breast cancer cells; assay: In vitro inhibition of MDA-MB-231 cell growth by analogs with amino acid substitutions (Example 7); assay type: cell-based; conditions: 100 nM, 8-10 days; for growth inhibition compared with Ang-(1-7) and TCAng05: added twice weekly
Description: To determine whether the novel analogs reduced tumor growth, subconfluent monolayers of actively growing MDA-MB-231 human breast cancer cells in 24-well cluster plates were incubated with 100 nM of Ang(1-7) (A7), TCAng05 (TC), or one of analogs NEP1-24 for 8-10 days. Ang-(1-7) was added daily as it is rapidly degraded while the Ang(1-7) analogs were added twice weekly at the time the cells were fed. Saline was used as control (C). Cell numbers were then counted using a Nexelcom Cellometer. Assays were performed in triplicate for 2-4 replicates.

CD34 = CD34 immunohistochemistry of tumors from orally treated mice (blood vessel density); assay type: in vivo, mouse; conditions: oral TCAng05
Description: as §2
Tumor sections were stained with an antibody specific for CD34 to label endothelial cells lining blood vessels and measure the density of blood vessels. […] In previous studies with orthotopic models, Ang-(1-7) reduced angiogenesis in mice with human lung tumors or human prostate tumors (Soto-Pantoj a et al., Mol Cancer Ther 2009; 8:1676-83; Krishnan et al., Prostate 2013; 73:60-70). This is in agreement with a reduction in the pro-angiogenic peptide platelet-derived growth factor (PDGF) in patients with solid tumors treated with Ang-(1-7) (Petty et al., BMC Cancer 2012; 12:404).

4T1 breast cancer cells [6] = assay type: in vivo, mouse; conditions: for final tumor volume: daily gavage, untreated 671.2±127.2
Description: The oral efficacy of TCAng05 to inhibit tumor growth in vivo was also measured using the orthotopic model of human breast cancer described in Example 4. 4T1 breast cancer cells were injected into the mammary fat pad of BALB/C mice (2.5×10^5 cells in saline). Tumor size was measured every 3 days using a caliper and tumor volume was calculated using the formula for a semi-ellipsoid. The tumors were allowed to grow until they reached a size of 100 mm^3, at which point treatment was started (Day 0). Mice received daily gavage of TCAng05 at one of three concentrations: 12 μg/kg/day (Low), 60 μg/kg/day (Medium), or 300 μg/kg/day (High). Mice were sacrificed on Day 21 of treatment. Treatment groups contained 3-4 animals. […] At the time of sacrifice, the tumors were weighed.

Ki67 = Ki67 immunohistochemistry of tumors from orally treated mice (cell proliferation); assay type: in vivo, mouse; conditions: oral TCAng05, 12, 60, 300 μg/kg/day
Description: as §2
Tumor sections were stained with an antibody specific for Ki67 to measure cell proliferation.

[7] = rat plasma, 37° C., HPLC, read-out: half-life in rat plasma (converted)

Question: What does the source list for `CC[C@H](C)[C@H](NC(=O)[C@H](Cc1ccc(O)cc1)NC(=O)[C@@H](NC(=O)[C@H](CCCNC(=N)N)NC(=O)[C@@H](N)CC(=O)O)C(C)C)C(=O)N[C@@H](Cc1c[nH]cn1)C(=O)N1CCC[C@H]1C(=O)O` [Ang-(1-7), DRVYIHP]?
Answer: weight of the mice, size of hearts and kidneys (4T1 breast cancer cells [1]; subcutaneous treatment, at sacrifice): no change; half-life [2, 7]: ~30 min; half-life ([2]; read-out: half-life in plasma): 30 min

Question: With `CC[C@H](C)[C@@H]1NC(=O)[C@H](Cc2ccc(O)cc2)NC(=O)[C@H](C(C)C)NC(=O)[C@H](CCCNC(=N)N)NC(=O)[C@H](CC(=O)O)NC(=O)C[C@@H](C(=O)N[C@@H](C(=O)N2CCC[C@@H]2C(N)=O)C(C)C)NC(=O)[C@@H]2CCCN2C(=O)[C@H](Cc2c[nH]cn2)NC1=O` [TCAng04, cyc[DRVYIHPD](dV)(dP)-amide] (DRVYIHPD[dV][dP]-NH2; lactam N-8) as the compound, how does the half-life [2, 7] read?
Answer: ~3000 min

Question: And the “reduction of cell growth” value [3]?
Answer: 51.5±5.4%

Question: And the “reduction of cell growth” value [4]?
Answer: 33.7±12.3%

Question: For “Ac-(Nle)DRVYIHPK(dV)(dP)-amide (Ac-[Nle]DRVYIHPK[dV][dP]-NH2; SMILES CCCC[C@H](NC(C)=O)C(=O)N[C@@H](CC(=O)O)C(=O)N[C@@H](CCCNC(=N)N)C(=O)N[C@H](C(=O)N[C@@H](Cc1ccc(O)cc1)C(=O)N[C@H](C(=O)N[C@@H](Cc1c[nH]cn1)C(=O)N1CCC[C@H]1C(=O)N[C@@H](CCCCN)C(=O)N[C@@H](C(=O)N1CCC[C@@H]1C(N)=O)C(C)C)[C@@H](C)CC)C(C)C) [L-TCAng05, linear form of TCAng05]”, which “effect on MDA-MB-231 cell growth” value [3] is on record?
Answer: ineffective

Question: With “[Lac(2,9)[Ac-(Nle)cyc[DRVYIHPK](dV)(dP)-amide (Ac-[Nle]DRVYIHPK[dV][dP]-NH2; lactam 2-9; not fully specified; printed as [Lac(2,9)[Ac-(Nle)cyc[DRVYIHPK](dV)(dP)-amide) [TCAng05]” as the compound, how does the “final tumor size (volume)” value (4T1 breast cancer cells [1]; 24 μg/kg/h, subcutaneous osmotic mini-pump, saline 980.1±35.0) read?
Answer: 259.1±19.2 mm^3

Question: And the “tumor size across doses” value (4T1 breast cancer cells [1]; 6, 12, 24 μg/kg/h subcutaneous)?
Answer: dose-dependent reduction

Question: And the “reduction in tumor weight” value (4T1 breast cancer cells [1]; highest concentration (24 μg/kg/h), subcutaneous, at sacrifice)?
Answer: 48%

Question: What about the “effect of low and medium doses” value (4T1 breast cancer cells [1]; low (6 μg/kg/h) and medium (12 μg/kg/h) doses, subcutaneous) of the same compound?
Answer: not significantly impact

Question: And the “weight of the mice, size of hearts and kidneys” value (4T1 breast cancer cells [1]; mouse, in vivo, sc)?
Answer: no change

Question: And the “collagen staining (Picrosirius red) in tumor sections” value (collagen)?
Answer: reduced

Question: And the “reduction of cell growth” value ([5]; Ang-(1-7) added daily, analogs added twice weekly)?
Answer: 27.3±9.8%

Question: And the “density of blood vessels (CD34) in tumor sections” value (CD34)?
Answer: significant reduction

Question: What about the final tumor volume (4T1 breast cancer cells [6]; high dose 300 μg/kg/day) of the same compound?
Answer: 378.3±151.2 mm^3

Question: And the “effect of low dose” value (4T1 breast cancer cells [6]; low dose 12 μg/kg/day, oral)?
Answer: not significantly impact

Question: And the final tumor volume (4T1 breast cancer cells [6]; medium dose 60 μg/kg/day)?
Answer: 289.7±64.2 mm^3

Question: What about the “tumor weight” value (4T1 breast cancer cells [6]; medium or high oral dose, at sacrifice) of the same compound?
Answer: reduced

Question: And the “mouse weight, heart weight or kidney weight” value (4T1 breast cancer cells [6]; mouse, in vivo, po)?
Answer: no effect

Question: What about the “inhibition of growth in the presence of Ang-(1-7) receptor antagonist Dala” value ([3]; 100 nM peptide plus 1 μM D-Alanine7-Ang-(1-7) [Dala]) of the same compound?
Answer: blocked

Question: And the “effect on MDA-MB-231 cell growth” value [3]?
Answer: reduced growth

Question: And the “reduction of cell growth” value [3]?
Answer: 51.5±5.4%

Question: What about the “reduction of cell growth” value [4] of the same compound?
Answer: 33.7±12.3%

Question: What about the “Ki67 immunoreactivity in tumor sections” value (Ki67) of the same compound?
Answer: dose-dependent reduction

Question: For “[Lac(2,9)]Ac-(Nle)cyc[DRVYAHPK](dV)(dP)-amide (Ac-[Nle]DRVYAHPK[dV][dP]-NH2; lactam 2-9; not fully specified; printed as [Lac(2,9)]Ac-(Nle)cyc[DRVYAHPK](dV)(dP)-amide) [NEP4]”, which “growth inhibition compared with Ang-(1-7) and TCAng05” value [5] is on record?
Answer: reduced cell growth comparably

Question: Which “growth inhibition compared with Ang-(1-7) and TCAng05” value [5] does the source give for “[Lac(2,9)]Ac-(Nle)cyc[DRVYIHP(Dab)](dV)(dP)-amide [NEP24]” here?
Answer: reduced cell growth comparably

Question: Which “growth inhibition compared with Ang-(1-7) and TCAng05” value [5] does the source give for “[Lac(2,9)]Ac-(Nle)cyc[DRVYIHP(K)-amide] (Ac-[Nle]DRVYIHPK-NH2; lactam 2-9; not fully specified; printed as [Lac(2,9)]Ac-(Nle)cyc[DRVYIHP(K)-amide]) [NEP8]” here?
Answer: reduced cell growth comparably

Question: Which “growth inhibition compared with Ang-(1-7) and TCAng05” value [5] does the source give for “[Lac(2,9)]Ac-(Nle)cyc[DRVYIHP(NMeK)](dV)(dP)-amide [NEP20]” here?
Answer: reduced cell growth comparably

Question: Which “growth inhibition compared with Ang-(1-7) and TCAng05” value [5] does the source give for “[Lac(2,9)]Ac-(Nle)cyc[DRVYLHPK](dV)(dP)-amide (Ac-[Nle]DRVYLHPK[dV][dP]-NH2; lactam 2-9; not fully specified; printed as [Lac(2,9)]Ac-(Nle)cyc[DRVYLHPK](dV)(dP)-amide) [NEP12]” here?
Answer: reduced cell growth comparably

Question: For “[Lac(2,9)]H2N-(Nle)cyc[DRVYIHPK](dV)(dP)-amide (H-[Nle]DRVYIHPK[dV][dP]-NH2; lactam 2-9; not fully specified; printed as [Lac(2,9)]H2N-(Nle)cyc[DRVYIHPK](dV)(dP)-amide) [NEP16]”, which “growth inhibition compared with Ang-(1-7) and TCAng05” value [5] is on record?
Answer: reduced cell growth comparably
